Data taken from publication PMC6234764, “First Insights Into Within Host Translocation of the Bacillus cereus Toxin Cereulide Using a Porcine Model” (Frontiers in Microbiology, 2018).

Assays:
piglets [1] = test: Histological examination of organs; format: in vivo, pig; conditions: pigs orally challenged with cereulide
Experimental: (§1) After oral administration of cereulide, piglets were monitored for unusual behavior and examined physically with special respect on rectal body temperature as well as pulse and respiration rate, every 2–3 h. Blood samples were taken from the Vena cava cranialis. Urine and feces were collected during the whole experiment and stored at -80°C. After the experiment pigs were anaesthetized by intramuscular injection of a bolus of ketamine (10 mg kg^-1) and azaperone (1.3 mg kg^-1). When sedation was deep enough cerebrospinal fluid (liquor) was taken by lumbar puncture. Finally, pigs were euthanized by intracardial injection of T61®. Animals were then necropsied and parts of the following organs, tissues or body fluids were taken for SIDA-MS analysis: liver, lung, heart, kidney, brain, spleen, small and large intestine, lymph nodes, gastric as well as intestinal contents, skeletal muscle, and abdominal and subcutaneous fat. Samples of liver, lung, heart, kidney, brain, spleen, small, and large intestine were collected for histological analysis.

piglets [2] = test: Blood analysis: hematology and clinical chemistry; format: in vivo, pig
Experimental: (§2) A total of four experiments, each including four treated animals and one control pig, was performed to investigate the action of cereulide on piglets after oral intake of cereulide. Pigs were either challenged orally with a single dose (acute trials) or with daily over a period of 7 days (chronic trial) (see Table 1). One hour before cereulide toxin administration blood samples were taken by puncturing the anterior Vena cava and piglets were weighed for calculation of the cereulide concentration (t = 0 h). In the intoxication experiment with 150 μg kg^-1 blood samples were taken 68 h before the experiment to reduce the distress for the animals at the start day of the experiments. Blood-chemical, immunological, and histological analyses of selected organs as well as quantification of cereulide in organs, tissues, urine and feces were carried out as detailed below.
as §1
One milliliter EDTA-stabilized blood and 3 mL heparin-stabilized blood (worked up to serum) were screened for erythrocyte number, hemoglobin, hematocrit, mean cellular volume (MCV), mean cellular hemoglobin (MCH), mean cellular hemoglobin concentration (MCHC), leukocyte number, mean peroxidase index (MPXI), numbers of monocytes, lymphocytes, eosinophils, basophils, lymphoblasts, juvenile and segmented neutrophils, as well as glucose, urea, creatinine, total protein, aspartate amino transferase (AST), alanine amino transferase (ALT), […] (GLDH), gamma glutamyl transferase (GGT), bile acid, lipase, creatine kinase, sodium, potassium, chloride, calcium, and phosphorus at the central diagnostic unit of the University of Veterinary Medicine Vienna.

[3] = Excretion of cereulide in feces and urine, SIDA-MS; format: in vivo, pig
Experimental: as §2
On body weight calculated amounts of cereulide, dissolved in ethanol, were mixed with milk (UHT milk; 3.5% fat), and fed to four piglets. Control piglets were fed with milk supplemented with similar ethanol concentrations as the experimental piglets. The experiment started after the uptake of the whole milk cereulide mixture. The milk was checked for bacterial contamination prior to the experiment.
as §1
Collected blood samples, urine, feces, tissue and organs were freeze dried and stored at -80°C until analysis. Before extraction, liquid nitrogen was added to frozen samples and they were crushed to a powder using a mortar. Ten microgram ^13C6-cereulide (for organs and feces) or 5 μg ^13C6-cereulide (for urine and blood) was added and samples were incubated on a rocking table for 2 h. Samples were solved in ethanol (volume depending on weight 10–40 mL), incubated 14 h, and the supernatants were collected by centrifugation (RT, 8500 g, 10 min). For pre-purification the ethanolic extract was 1:5 diluted with water and applied onto the top of a methanol activated C18-SPE cartridge (6 mL; 1 g; Strata C18-E; Phenomenex, Aschaffenburg, Germany). The cartridge was washed with 6 mL water followed by methanol/water (4 mL; 70/30, v/v) and target compounds were eluted with ethanol (2.5 mL). Finally, samples were membrane filtrated (0.2 μm; PTFE membrane; Phenomenex, Aschaffenburg, Germany) and analyzed by means of LC-MS/MS as described previously ([Bauer et al., 2010]). In brief, LC-MS/MS analysis was performed using an Agilent 1200 HPLC-system connected to the API 4000QTrap LC-MS/MS (Applied Biosystems, Darmstadt, Germany) running in the positive electrospray ionization (ESI^+, +5500 V) mode. Zero grade air served as nebulizer gas (45 psi) and turbo gas (425°C) for solvent drying (55 psi), nitrogen was used as curtain (20 psi) and collision gas (8.7 × 10^-7 psi), respectively. Both quadrapoles were set at unit resolution. […]

[4] = plasma of rabbits, direct intravenous injection; ref Cui et al., 2016; cited from earlier work
[5] = test system: Min6 cells and whole mouse pancreatic islets; conditions: ref Vangoitsenhoven et al., 2014; cited from earlier work
Experimental: Low concentrations of cereulide can cause dysfunction in beta-cell lines ([Vangoitsenhoven et al., 2014]) and have been reported to be detrimental toward isolated porcine pancreatic Langerhans islets ([Virtanen et al., 2008]). Using Min6 cells and whole mouse pancreatic islets as model, it could be shown that low concentrations of cereulide (0.25–0.5 ng/mL) are directly effecting the insulin secretory machinery ([Vangoitsenhoven et al., 2014]). Based on their in vitro findings the authors hypothesized that cereulide may contribute to the rise of prevalence of diabetes observed worldwide, as a ...

[6] = daily oral dose 10 μg kg^-1 over 7 days

CC(C)C[C@H]1OC(=O)[C@H](C(C)C)NC(=O)[C@H](C(C)C)OC(=O)[C@@H](C)NC(=O)[C@@H](CC(C)C)OC(=O)[C@H](C(C)C)NC(=O)[C@H](C(C)C)OC(=O)[C@@H](C)NC(=O)[C@@H](CC(C)C)OC(=O)[C@H](C(C)C)NC(=O)[C@H](C(C)C)OC(=O)[C@@H](C)NC1=O [cereulide]
Histological examinations of liver, lung, heart, kidneys, brain, spleen and gastrointestinal tract (piglets [1]): did not reveal any notable or specific pathological changes
Influence on blood cell composition and biochemical markers in blood (piglets [2]; acute trials, samples before and after 8 (only 150 μg kg^-1), 24 and 48 h): no significant influence
Creatine kinase (CK) (piglets [2]; daily oral dose 10 μg kg^-1, after 3 days, all treated pigs): increase
AST levels (piglets [2]; daily oral dose 10 μg kg^-1, two out of four treated pigs after 3 and 7 days): elevated
Creatine kinase (CK) levels (piglets [2]; single oral dose 30 μg kg^-1): increased
Creatine kinase (CK) levels (piglets [2]; single oral dose 150 μg kg^-1): increased
Leukocytes (piglets [2]; single oral dose 150 μg kg^-1, all animals): increased levels
Aspartate aminotransferase (AST) (piglets [2]; single oral dose 150 μg kg^-1, three out of four pigs): transient increase
Cereulide concentration in feces ([3]; daily oral dose 10 μg kg^-1, until end of trial on day 7): 0.02 to 0.29 μg cereulide g^-1 feces
Detectability of cereulide in urine [3, 6]: no cereulide was detectable
Time until cereulide became detectable in fecal samples [3, 6]: 2 to 3 days
Amount of cereulide excreted with the feces ([3]; one pig (13 kg), 30 μg kg^-1 (total intake 390 μg), after 12 h): 20.90 µg
Amount of cereulide excreted with the feces ([3]; one pig (13 kg), 30 μg kg^-1 (total intake 390 μg), after 24 h): 26.80 µg
Amount of cereulide excreted with the feces ([3]; one pig (13 kg), 30 μg kg^-1 (total intake 390 μg), after 48 h): 1.38 µg
Total amount of cereulide excreted with the feces ([3]; one pig (13 kg), 30 μg kg^-1 (total intake 390 μg), in 33.6 g feces over 48 h): 49.08 µg
Cereulide concentration in fecal samples, maximum ([3]; oral challenge, SIDA-MS): up to 5 μg cereulide g^-1 feces
Overall cereulide excretion in feces, % of total amount ([3]; single oral dose 30 μg kg^-1, within first 48 h): up to 13%
Time of first detection in fecal samples post-toxin exposure ([3]; single oral dose 150 μg kg^-1): 3 to 4 h
Cereulide concentration in urine, maximum ([3]; single oral dose 150 μg kg^-1, SIDA-MS): up to 2 ng cereulide mL^-1 urine
Overall cereulide excretion in feces, % of total quantity administered ([3]; single oral dose 150 μg kg^-1, within first 48 h): up to 15%
Time of highest toxin amounts excreted with feces ([3]; single oral dose 150 μg kg^-1, exception one pig that did not defecate over 20 h): 16 to 24 h
Detectability of cereulide in urine ([3]; single oral doses 10 μg kg^-1/30 μg kg^-1, SIDA-MS): not from animals challenged with lower cereulide doses
Cereulide orally administered that is shed with feces ([3]; within the first 48 h, acute trials): 10–15%
Elimination half-life [4]: 10.8 ± 9.1 h
Low concentrations directly effecting the insulin secretory machinery [5]: 0.25 to 0.5 ng/mL
